Source: publication PMC7115582 (European Journal of Medicinal Chemistry, 2018)

Each compound was assayed on lentiviral pseudoparticles carrying H1-HA and N1-NA (from A/PR/8/34). Conditions: control compounds; MDCK cells; Fig. 3.
Type: cell-based, influenza A virus
In the case of `CC(C)c1ccccc1NCCN1CCCCC1.Cl` [Compound 80], the “inhibition of pseudoparticle entry, in words” value (“inhibition” for short) is reported as “Strong and dose-dependent inhibition”. `CCc1ccccc1OCCN1CCCCCC1` [Compound 81] was tested, and the “inhibition” value was “Strong and dose-dependent inhibition”. With `COC(=O)[C@@H]1NC(=O)[C@@H]2NC(=O)[C@H](NC(=O)[C@@H]3NC(=O)[C@H]4NC(=O)[C@H](NC(=O)[C@H](Nc5c(NCc6ccc(-c7ccccc7)cc6)c(=O)c5=O)c5ccc(O)c(c5)Oc5cc4cc(O)c5C)[C@H](O)c4ccc(cc4)Oc4cc3cc(c4O)Oc3ccc(cc3)[C@H]2O)c2ccc(O)c(c2)-c2c(O)cc(O)cc21` [SA-19] the “inhibition” value was “Strong and dose-dependent inhibition”. `CCN(CC)CCCC(C)Nc1ccnc2cc(Cl)ccc12` (stereo not shown) [chloroquine] was tested, and the “inhibition” value was “Strong and dose-dependent inhibition”.
